From ChEMBL document CHEMBL3817824, “Synthesis and biological evaluation of new [1,2,4]triazolo[4,3-a]pyridine derivatives as potential c-Met inhibitors” (Bioorg Med Chem, 2016)

Key:
[1] = biological target: Hepatocyte growth factor receptor (Homo sapiens, UniProt P08581); assay: Inhibition of c-Met (unknown origin) incubated for 1 hr by spectrophotometric analysis
[2] = Cytotoxicity against human SNU5 cells assessed as reduction in cell survival incubated for 3 days by cell titre-glo assay; settings: SNU-5, 72 h
[3] = Cytotoxicity against human MHCC97L cells assessed as reduction in cell survival incubated for 3 days by cell titre-glo assay; assay type: functional, cell-based; settings: 72 h
[4] = Cytotoxicity against human HuH7 cells assessed as reduction in cell survival incubated for 3 days by cell titre-glo assay; assay type: functional, cell-based; settings: Huh-7, 72 h
NCI-N87 = assay: Cytotoxicity against human NCI-N87 cells assessed as reduction in cell survival incubated for 3 days by cell titre-glo assay; assay type: functional, cell-based; settings: NCI-N87, 72 h
A549 = assay: Cytotoxicity against human A549 cells assessed as reduction in cell survival incubated for 3 days by cell titre-glo assay; assay type: functional, cell-based; settings: A549, 72 h
[5] = Cytotoxicity against human HCCLM3 cells assessed as reduction in cell survival incubated for 3 days by cell titre-glo assay; assay type: functional, cell-based; settings: HCCLM3, 72 h
[6] = biological target: ALK tyrosine kinase receptor (Homo sapiens, UniProt Q9UM73); assay: Inhibition of ALK (unknown origin) incubated for 1 hr by spectrophotometric analysis
[7] = biological target: Protein-tyrosine kinase 6 (Homo sapiens, UniProt Q13882); assay: Inhibition of BRK (unknown origin) incubated for 1 hr by spectrophotometric analysis
[8] = biological target: Mast/stem cell growth factor receptor Kit (Homo sapiens, UniProt P10721); assay: Inhibition of c-Kit (unknown origin) incubated for 1 hr by spectrophotometric analysis
Ephrin type-A receptor 2 = Ephrin type-A receptor 2 (Homo sapiens, UniProt P29317); assay: Inhibition of ECK (unknown origin) incubated for 1 hr by spectrophotometric analysis
[9] = biological target: Epidermal growth factor receptor (Homo sapiens, UniProt P00533); assay: Inhibition of EGFR (unknown origin) incubated for 1 hr by spectrophotometric analysis
[10] = biological target: Epidermal growth factor receptor (Homo sapiens, UniProt P00533, L858R/T790M); assay: Inhibition of EGFR T790M/L858R mutant (unknown origin) incubated for 1 hr by spectrophotometric analysis; assay type: protein assay
Ephrin type-A receptor 1 = Ephrin type-A receptor 1 (Homo sapiens, UniProt P21709); assay: Inhibition of EPHA1 (unknown origin) incubated for 1 hr by spectrophotometric analysis
Ephrin type-B receptor 2 = Ephrin type-B receptor 2 (Homo sapiens, UniProt P29323); assay: Inhibition of EPHB2 (unknown origin) incubated for 1 hr by spectrophotometric analysis
[11] = biological target: Mitogen-activated protein kinase 1 (Homo sapiens, UniProt P28482); assay: Inhibition of ERK2 (unknown origin) incubated for 1 hr by spectrophotometric analysis
[12] = biological target: Tyrosine-protein kinase Fer (Homo sapiens, UniProt P16591); assay: Inhibition of FER (unknown origin) incubated for 1 hr by spectrophotometric analysis
[13] = biological target: Vascular endothelial growth factor receptor 1 (Homo sapiens, UniProt P17948); assay: Inhibition of FLT1 (unknown origin) incubated for 1 hr by spectrophotometric analysis
[14] = biological target: Receptor-type tyrosine-protein kinase FLT3 (Homo sapiens, UniProt P36888); assay: Inhibition of FLT3 (unknown origin) incubated for 1 hr by spectrophotometric analysis
[15] = biological target: Vascular endothelial growth factor receptor 3 (Homo sapiens, UniProt P35916); assay: Inhibition of FLT4 (unknown origin) incubated for 1 hr by spectrophotometric analysis
[16] = biological target: Fibroblast growth factor receptor 1 (Homo sapiens, UniProt P11362); assay: Inhibition of FGFR1 (unknown origin) incubated for 1 hr by spectrophotometric analysis
[17] = biological target: Fibroblast growth factor receptor 2 (Homo sapiens, UniProt P21802); assay: Inhibition of FGFR2 (unknown origin) incubated for 1 hr by spectrophotometric analysis
[18] = biological target: Fibroblast growth factor receptor 4 (Homo sapiens, UniProt P22455); assay: Inhibition of FGFR4 (unknown origin) incubated for 1 hr by spectrophotometric analysis
[19] = biological target: Tyrosine-protein kinase Fyn (Homo sapiens, UniProt P06241); assay: Inhibition of FYN (unknown origin) incubated for 1 hr by spectrophotometric analysis
[20] = biological target: Glycogen synthase kinase-3 beta (Homo sapiens, UniProt P49841); assay: Inhibition of GSK3beta (unknown origin) incubated for 1 hr by spectrophotometric analysis
[21] = biological target: Receptor tyrosine-protein kinase erbB-2 (Homo sapiens, UniProt P04626); assay: Inhibition of HER2 (unknown origin) incubated for 1 hr by spectrophotometric analysis
[22] = biological target: Receptor tyrosine-protein kinase erbB-4 (Homo sapiens, UniProt Q15303); assay: Inhibition of HER4 (unknown origin) incubated for 1 hr by spectrophotometric analysis
[23] = biological target: Insulin-like growth factor 1 receptor (Homo sapiens, UniProt P08069); assay: Inhibition of IGF-1R (unknown origin) incubated for 1 hr by spectrophotometric analysis
[24] = biological target: Tyrosine-protein kinase JAK1 (Homo sapiens, UniProt P23458); assay: Inhibition of JAK1 (unknown origin) incubated for 1 hr by spectrophotometric analysis
[25] = biological target: Tyrosine-protein kinase JAK3 (Homo sapiens, UniProt P52333); assay: Inhibition of JAK3 (unknown origin) incubated for 1 hr by spectrophotometric analysis
[26] = biological target: Vascular endothelial growth factor receptor 2 (Homo sapiens, UniProt P35968); assay: Inhibition of KDR (unknown origin) incubated for 1 hr by spectrophotometric analysis
[27] = biological target: Tyrosine-protein kinase Lyn (Homo sapiens, UniProt P07948); assay: Inhibition of LYNA (unknown origin) incubated for 1 hr by spectrophotometric analysis
[28] = biological target: Muscle, skeletal receptor tyrosine-protein kinase (Homo sapiens, UniProt O15146); assay: Inhibition of MUSK (unknown origin) incubated for 1 hr by spectrophotometric analysis
[29] = biological target: Mitogen-activated protein kinase 14 (Homo sapiens, UniProt Q16539); assay: Inhibition of p38alpha (unknown origin) incubated for 1 hr by spectrophotometric analysis
[30] = biological target: Platelet-derived growth factor receptor alpha (Homo sapiens, UniProt P16234); assay: Inhibition of PDGFRalpha (unknown origin) incubated for 1 hr by spectrophotometric analysis
[31] = biological target: Protein kinase C alpha type (Homo sapiens, UniProt P17252); assay: Inhibition of PKCalpha (unknown origin) incubated for 1 hr by spectrophotometric analysis
[32] = biological target: Serine/threonine-protein kinase N1 (Homo sapiens, UniProt Q16512); assay: Inhibition of PKN1 (unknown origin) incubated for 1 hr by spectrophotometric analysis
[33] = biological target: Macrophage-stimulating protein receptor (Homo sapiens, UniProt Q04912); assay: Inhibition of RON (unknown origin) incubated for 1 hr by spectrophotometric analysis
[34] = biological target: Proto-oncogene tyrosine-protein kinase ROS (Homo sapiens, UniProt P08922); assay: Inhibition of ROS (unknown origin) incubated for 1 hr by spectrophotometric analysis
[35] = biological target: High affinity nerve growth factor receptor (Homo sapiens, UniProt P04629); assay: Inhibition of TRKA (unknown origin) incubated for 1 hr by spectrophotometric analysis

Structure (SMILES): CN1C(=O)COc2c1cnc1ccc(Sc3nnc4c(F)cc(-c5cnn(C)c5)cn34)cc21 [DALMELITINIB]
- IC50 [1]: 0.0007 µM
- IC50 [2]: 0.002 µM
- IC50 [3]: 0.007 µM
- IC50 [4]: > 10 µM
- IC50 (NCI-N87): > 10 µM
- IC50 (A549): > 10 µM
- IC50 [5]: 0.033 µM
- IC50 [6]: > 30 µM
- IC50 [7]: > 30 µM
- IC50 [8]: > 30 µM
- IC50 (Ephrin type-A receptor 2): > 30 µM
- IC50 [9]: > 30 µM
- IC50 [10]: > 30 µM
- IC50 (Ephrin type-A receptor 1): > 30 µM
- IC50 (Ephrin type-B receptor 2): > 30 µM
- IC50 [11]: > 30 µM
- IC50 [12]: > 30 µM
- IC50 [13]: > 30 µM
- IC50 [14]: > 30 µM
- IC50 [15]: > 30 µM
- IC50 [16]: > 30 µM
- IC50 [17]: > 30 µM
- IC50 [18]: > 30 µM
- IC50 [19]: 11.2 µM
- IC50 [20]: 16.2 µM
- IC50 [21]: > 30 µM
- IC50 [22]: > 30 µM
- IC50 [23]: > 30 µM
- IC50 [24]: > 30 µM
- IC50 [25]: > 30 µM
- IC50 [26]: > 30 µM
- IC50 [27]: > 30 µM
- IC50 [28]: > 30 µM
- IC50 [29]: > 30 µM
- IC50 [30]: > 30 µM
- IC50 [31]: > 30 µM
- IC50 [32]: > 30 µM
- IC50 [33]: > 30 µM
- IC50 [34]: 2.83 µM
- IC50 [35]: > 30 µM
